Measured values: patent US7700623B2, “Arylamidine derivative, salt thereof, and antifungal containing these” (Toyama Chemical Co., Ltd., priority 2004, dated 2010)
Where a name gives a salt, the structure may show the parent alone.

Experiments:
[1] = tested on: Candida albicans TIMM1623; experiment: Mouse Candida infection model test (oral administration); format: in vivo; details: 1 mg/kg orally for 7 days from 2 hours after infection, cyclophosphamide-compromised mice, observed 21 days after infection
Protocol: Candida albicans TIMM1623 on a SDA plate, which had been cultured overnight at 35° C. was suspended in a sterilized physiological saline, which was then diluted to prepare a suspension of inoculum organism. To make mice in a transiently compromised state, cyclophosphamide was intraperitoneally administered at 200 mg/kg 4 days before infection and at 100 mg/kg the next day after infection. Into the tail vein of mice was inoculated 0.2 mL of the prepared solution of inoculum Candida albicans TIMM1623 to induce infection (about 3×10^4 CFU/mouse). The test compound was suspended in 0.5% methylcellulose and orally administered at 1 mg/kg of mouse body weight. The treatment was started from 2 hours after infection and carried out for 7 days.

[2] = Repeated-dose toxicity test in mice (2), hematological test; format: in vivo; details: value when control group is set to 100, male ICR mice
Protocol: (§1) Six-week old male ICR mice (body weight range: 27.4 to 33.7 g, the number of animals allocated to each group: 5) were used to examine the repeated-dose toxicity. A solution of each test compound was prepared by dissolution in 0.1 mol/L hydrochloric acid. Each compound was subcutaneously administered at a dose of 6.25 or 3.13 mg/kg once a day for 14 days. A sterilized physiological saline was administered to a control group. At the end of the administration period, each mouse was anesthetized with ether. An injection syringe containing a heparin solution (Novo-Heparin Injection 1000, Aventis Pharma K.K.) as an anticoagulant was used for blood collection from abdominal portion of vena cava. A hematological test was carried out for the following items.
(§2) (Hematological Test Items and Determination Methods)
(§3) Red blood cell count (RBC): Two-angle laser flow cytometry
(§4) Reticulocyte count: Flow cytometry after RNA staining

[3] = tested on: Candida albicans TIMM1623; experiment: Antifungal action: susceptibility testing of fungi by microbroth dilution method; format: cell-based; details: Candida albicans TIMM1623, RPMI/MOPS pH 7.0, 35° C., 48 hours, 50% growth inhibition
Protocol: Susceptibility testing of fungi was carried out using a microbroth dilution method. The medium used in the susceptibility test was RPMI1640 (RPMI/MOPS) adjusted to pH 7.0 employing 0.165 mol/L morpholinepropanesulfonic acid (MOPS) and 1.0 mol/L sodium hydroxide. A test compound was dissolved in sterile water, which was then subjected to two-fold serial dilution using 100 μL of RPMI/MOPS on a 96-well round bottom plate. Candida albicans TIMM1623 cultured overnight at 35° C. on Sabouraud agar medium was suspended in a sterilized physiological saline. The number of cells was counted under a biological microscope; a suspension of inoculum organism 2×10^3 cells/mL) was prepared using RPMI/MOPS, and 100 μL thereof was then dispensed into each well; and a microplate containing a predetermined concentration of the test compound, the medium, and fungal cells was finally prepared. The plate was cultured at 35° C. for 48 hours. After the end of cultivation, absorbance was determined at 630 nm using an automatic spectrophotometer. The lowest test compound concentration at which 50% growth inhibition was observed as compared to growth control where no test compound was added was defined as IC50.

[4] = Hygroscopicity test (1): storage at relative humidity of 75% for one week; format: physicochemical
Protocol: The compound of Example 4 and the comparative compound were stored under conditions of room temperature and a relative humidity of 75% or 60° C. and a relative humidity of 75% for one week.

[5] = Repeated-dose toxicity test in mice (1), hematological test; format: in vivo; details: value when control group is set to 100; 6.25 mg/kg subcutaneously once a day for 7 days, male ICR mice
Protocol: as §1, with “weight range: 30.6 to 34.8” for “weight range: 27.4 to 33.7”, “30.6 to 34.8 g, the” for “27.4 to 33.7 g, the”, “dissolution in distilled water. Each compound” for “dissolution in 0.1 mol/L hydrochloric acid. Each compound”, “of 6.25 mg/kg once” for “of 6.25 or 3.13 mg/kg once”, “day for 7 days. A” for “day for 14 days. A”, “portion of the vena cava.” for “portion of vena cava.”
as §2, §3, §4

[6] = Vero cell proliferation inhibition test (XTT assay); format: cell-based; details: African green monkey, Vero cells, concentration inhibiting cell proliferation by 50%
Protocol: The cytotoxicity of each compound was evaluated using Vero cells. Each test compound was dissolved in dimethylsulfoxide (DMSO), which was then subjected to serial dilution with 10% FBS-containing E'MEM and added to a 96-well plate. The cells were suspended in 10% FBS-containing E'MEM, inoculated in an amount of 3,000 cells/well (96-well plate), and cultured in a CO2 incubator at 37° C. for 3 days. The degree of growth of Vero cells was evaluated using a 2,3-bis-(2-methoxy-4-nitro-5-sulfophenyl)-5-[(phenylamino)carbonyl]-2H-tetrazolium=inner salt=monosodium salt (XTT) assay. Thus, an XTT solution containing 1 mg/mL XTT and 25 μmol/L phenazine=methosulfate (PMS) was added to each well, which was then incubated in a CO2 incubator for 2 hours, followed by determining the absorbance of the well at 450 nm (reference: 655 nm) using a micro plate reader. The absorbance ratio between the control (no added compound) and each of the wells was calculated, and the concentration (CC50; μg/mL) of compound inhibiting cell proliferation by 50% was computed.

[7] = Hygroscopicity test (3): storage at 60° C. and relative humidity of 100% for one week; format: physicochemical; details: relative humidity of 100%
Protocol: The compound of Example 10 and the comparative compound were stored under conditions of 60° C. and a relative humidity of 100% for one week. As a result, the comparative compound deliquesced.

[8] = tested on: Trichomonas vaginalis CDC337; experiment: Antiprotozoan action; format: cell-based; details: 48 h
Protocol: Trichomonas vaginalis CDC337 was cultured in a Diamond's trypticase-yeast-maltose medium (pH 6.8) containing 8% fetal bovine serum (FBS). The protozoan bodies which had been cultured 37° C. for 2 days were centrifuged (1,500 rpm, 10 minutes) and subjected to medium replacement with a fresh medium before adjustment to 2×10^4 bodies/mL, followed by dispensing them in an amount of 100 μL/well in a micro plate (96-well, flat bottom). The test compound was dissolved using 0.1 mol/L hydrochloric acid, which was then diluted to a predetermined concentration with the medium, followed by dispensing 100 μL/well thereof into a micro plate. The minimal test compound concentration at which the movement of the bodies was not observed after culture 37° C. under anaerobic conditions for 2 days was defined as MIC.

[9] = 3.13 mg/kg subcutaneously once a day for 14 days

With `NC(=NO)c1ccc(OCCCC2CCN(CCCOc3ccc(C(N)=NO)cc3)CC2)cc1` [Example 47, 4-{3-[4-(3-{4-[amino(hydroxyimino)methyl]phenoxy}propyl)-1-piperidinyl]propoxy}benzamide=oxime hydrochloride] the mice survived [1] was 80%.

With `N=C(N)c1ccc(OCCCC2CCN(CCCOc3ccc(C(=N)N)cc3)CC2)cc1` [Example 3, 4-{3-[4-(3-{4-[amino(imino)methyl]phenoxy}propyl)-1-piperidinyl]propoxy}benzamidine] the “Red blood cell count (RBC)” value [2, 9] was 96.4, the “Reticulocyte count (Reticulocyte)” value [2, 9] was 93.5 and the “Red blood cell count (RBC)” value ([2]; 6.25 mg/kg subcutaneously once a day for 14 days) was 98.7.

In the case of `N=C(N)c1ccc(OCCCC2CCN(CCCOc3ccc(C(=N)N)cc3)CC2)cc1` [Example 4, 4-{3-[4-(3-{4-[amino(imino)methyl]phenoxy}propyl)-1-piperidinyl]propoxy}benzamidine hydrochloride], the IC50 [3] was ≤ 3.9 ng/mL, the appearance after storage ([4]; 60° C.) was “powder without any change in the appearance” and the appearance after storage ([4]; room temperature) was “powder without any change in the appearance”. The “Red blood cell count (RBC)” value [5] was 94 and the CC50 at 3 days [6] was 25 µg/mL.

For `N=C(N)c1ccc(OCCCC2CCN(CCCOc3ccc(C(=N)N)cc3)CC2)cc1` [Example 10, 4-{3-[4-(3-{4-[amino(imino)methyl]phenoxy}propyl)-1-piperidinyl]propoxy}benzamidine trihydrochloride pentahydrate], the deliquescence after storage [7] was “did not deliquesce” and the MIC [8] was 16 µg/mL.
